# Data published in patent US9796728B2, “Cyclic carbonate monomer containing double-sulfur five-membered ring functional group, and preparation method thereof” (BrightGene Bio-Medical Technology Co., Ltd., priority 2014, dated 2017).
# Test system: B16 melanoma
# Assay: Treating melanoma-bearing mice with drug-loaded crosslinked nanoparticles
# Type: in vivo, C57BL/6 black mice
# Description: C57BL/6 black mice with body weight of about 18˜20 g, aged 4˜6 weeks were used in the experiment. The mice were weighed and equally grouped based on body weight, then 1×10^6 B16 melanoma cells were subcutaneously injected. After one week, when the size of the tumors was 30˜50 mm^3, the drug-loaded nanoparticles and free DOX were injected into the mice through tail veins at Day 0, 2, 4, 6, and 8, where the amount of DOX in drug-carrying nanoparticles was 10, 20, 30 mg/kg, […] From Day 0 to 15, the body weight of the mice in each group was weighed every day. The size of the tumor was precisely measured with Vernier scale, where the method for calculating the volume of tumors was: V=(L×W×H)/2, (where L was the length of the tumor, W was the width of the tumor, H was the thickness of the tumor). The survival of the mice was observed continuously till the 46th day.
# FIG. 11 is a curve graph showing that the doxorubicin-loaded polymer PEG5k-b-PCDC2.8k crosslinked nanoparticles inhibit tumor growth on melanoma-bearing mice; FIG. 12 is a curve graph showing the change of body weight of the mice. FIG. 13 is a curve graph showing the survival of the mice.
smiles,measurement,setting,value
"COc1cccc2c1C(=O)c1c(O)c3c(c(O)c1C2=O)C[C@@](O)(C(=O)CO)C[C@@H]3O[C@H]1C[C@H](N)[C@H](O)[C@H](C)O1 [free DOX, doxorubicin]",body weight decrease,"DOX group, in 7 days",23%
same,day of treatment on which all mice died,"DOX group, printed as 30 mg/kg",10 days
same,toxic side effects on the mice,free DOX group,severe toxic side effect
